{"source": "paper PMC4429480", "about": "“Simultaneous quantification of proposed anti-malarial combination comprising of lumefantrine and CDRI 97–78 in rat plasma using the HPLC–ESI-MS/MS method: application to drug interaction study” (Malaria Journal, 2015)", "key": {"[1]": {"experiment": "Stability of LUME and 97-63 in rat plasma (auto-sampler, bench top, freeze/thaw, freezer)", "format": "in vitro ADME", "conditions": "n = 6", "method": "All stability studies were conducted at two concentration levels, i.e., QC low and QC high, using six replicates at each concentration levels. […] The peak areas of analyte and IS obtained at initial cycle were used as the reference to determine the stability at subsequent points. The stability of LUME and 97–63 in the biomatrix during 6 hrs of exposure at room temperature in rat plasma (bench top (BT)) was determined at ambient temperature (25 ± 2°C). Freeze/thaw (FT) stability was evaluated up to three cycles. In each cycle, samples were frozen for at least 12 hrs at −70 ± 10°C. Freezer stability of both analytes in rat plasma was assessed by analysing the QC samples stored at −70 ± 10°C for at least 15 days. Samples were considered to be stable if assay values were within the acceptable limits of accuracy (i.e., ±15% deviation) and precision (i.e., ±15% RSD)."}, "[2]": {"experiment": "Oral pharmacokinetic interaction study of LUME and 97-78 in rats (LC-ESI-MS/MS, non-compartmental analysis)", "format": "in vivo, male Sprague–Dawley rats", "conditions": "for RB% (relative bioavailability = AUC coadmin/AUC control × 100): LUME 10 mg/kg oral with 97-78 70 mg/kg oral vs LUME alone; for AUC(0-inf) / AUC(0-t) / CL/F / Cmax / Tmax / Vd/F / half-life: male, Sprague-Dawley, rat, plasma, po, 10 mg/kg, rats n = 5, mean ± SD", "method": "Study was performed in male Sprague–Dawley rats (n = 5, weight range 200–220 g). The rats were fasted overnight (14–16 hrs) prior to the experiment but given free access to water. Rats were divided into three groups (n = 5 each): two control groups (LUME, 10 mg/kg, oral, suspension in 0.25% sodium CMC and 97–78, 70 mg/kg, oral, suspension in 0.25% sodium CMC), and one co-administration group (70 mg/kg of oral 97–78 and 10 mg/kg of oral LUME). Blood samples (approximately 0.25 mL) were collected from the retro-orbital plexus into heparinized microfuge tubes at 0.25, 0.50, 1, 3, 6, 9, 11, 13, 15, 24, 48, 72, and 120 hrs post-dosing and plasma was harvested by centrifuging the blood at 15,000xg for 10 min and stored frozen at −70 ± 10°C until bio-analysis.\nPlasma data were subjected to non-compartmental pharmacokinetics analysis using WinNonlin (version 5.1, Pharsight Corp, Mountain View, CA, USA). The observed maximum plasma concentration (Cmax) and the time to reach the maximum plasma concentration (Tmax) were obtained by visual inspection of the experimental data. Area under the plasma concentration-time curve from time zero to the last quantifiable concentration (AUC0-t) was calculated using linear trapezoidal rule. The total area under the plasma concentration–time curve from time zero to time infinity (AUC0-∞) was calculated as the sum of AUC0-t and Clast/kel, where, Clast represents the last quantifiable concentration and Kel represents the terminal phase rate constant. The apparent elimination half-life (t1/2) was calculated as 0.693/kel and the kel was estimated by linear regression of the plasma concentrations in the log-linear terminal phase. The clearance (Cl/F); where F represents the oral bioavailability, was calculated as dose/AUC, and the volume of distribution (Vd/F) was calculated as (Cl/F)/kel. The data is presented as a mean ± SD. The pharmacokinetic parameters were compared using Student’s t test. A P-value of <0.05 was considered significant. The relative bioavailability (RB %) was calculated as follows: RelativebioavailabilityRB%=AUCcoadimin/AUCcontrol×100"}, "[3]": {"set-up": "method as in PMID 21428247", "conditions": "cited from earlier work"}, "[4]": {"set-up": "method as in PMID 21428247", "conditions": "cited from earlier work", "remark": "listed apart in the source"}, "[5]": {"conditions": "10 ng/mL, 6 hrs (BT) bench top 25 ± 2°C"}, "[6]": {"conditions": "10 ng/mL, 24 hrs (AS) auto-sampler at 4°C, processed samples"}, "[7]": {"conditions": "10 ng/mL, FT-3 (three freeze/thaw cycles, −70 ± 10°C)"}, "[8]": {"conditions": "400 ng/mL, 6 hrs (BT) bench top 25 ± 2°C"}, "[9]": {"conditions": "400 ng/mL, 24 hrs (AS) auto-sampler at 4°C, processed samples"}, "[10]": {"conditions": "400 ng/mL, FT-3 (three freeze/thaw cycles, −70 ± 10°C)"}, "[11]": {"conditions": "LUME 10 mg/kg with 97-78 70 mg/kg oral, rats"}, "[12]": {"conditions": "LUME 10 mg/kg oral co-administered with 97-78 70 mg/kg oral"}, "[13]": {"conditions": "control: LUME 10 mg/kg oral alone"}}, "note": "Marks after values point to notes of the source that are not given here.", "data": [{"molecule": "C=C(c1ccc(OC(C)(C)CO)cc1)C1OCC2(OO1)C1CC3CC(C1)CC2C3", "note": "(centres unmarked) [97-63]", "values": [{"measurement": "Stability in rat plasma: Accuracy (%)", "setting": "[1]; [5]", "result": 93.85, "unit": "%"}, {"measurement": "Stability in rat plasma: Accuracy (%)", "setting": "[1]; [6]", "result": 104.67, "unit": "%"}, {"measurement": "Stability in rat plasma: Accuracy (%)", "setting": "[1]; 10 ng/mL, 15 days at −70°C", "result": 100.47, "unit": "%"}, {"measurement": "Stability in rat plasma: Accuracy (%)", "setting": "[1]; [7]", "result": 98.16, "unit": "%"}, {"measurement": "Stability in rat plasma: Accuracy (%)", "setting": "[1]; [8]", "result": 95.85, "unit": "%"}, {"measurement": "Stability in rat plasma: Accuracy (%)", "setting": "[1]; [9]", "result": 100.45, "unit": "%"}, {"measurement": "Stability in rat plasma: Accuracy (%)", "setting": "[1]; 400 ng/mL, 15 days at −70°C", "result": 98.72, "unit": "%"}, {"measurement": "Stability in rat plasma: Accuracy (%)", "setting": "[1]; [10]", "result": 99.79, "unit": "%"}]}, {"molecule": "C=C(c1ccc(OC(C)(C)COC(=O)CCC(=O)O)cc1)C1OCC2(OO1)C1CC3CC(C1)CC2C3", "note": "(centres unmarked) [97-78]", "values": [{"measurement": "effect of LUME co-administration on PK parameters of 97-78 other than Tmax", "setting": "[2]; 97-78 70 mg/kg with LUME 10 mg/kg oral, rats", "result": "no significant effect"}, {"measurement": "conversion into active metabolite 97-63 in vivo", "setting": "[3]", "result": "rapidly and completely converted"}, {"measurement": "conversion to 97-63 in plasma", "setting": "[4]", "result": "rapidly converted"}]}, {"molecule": "CCCCN(CCCC)CC(O)c1cc(Cl)cc2c1-c1ccc(Cl)cc1C2=Cc1ccc(Cl)cc1", "note": "(centres unmarked) [LUME, 2-dibutylamino-1-[2,7-dichloro-9-(4-chlorobenzylidene)-9H-fluoren-4-yl]-ethanol]", "values": [{"measurement": "RB% (relative bioavailability = AUC coadmin/AUC control × 100)", "setting": "[2]; rats", "result": "64.41^* %"}, {"measurement": "RB% (relative bioavailability = AUC coadmin/AUC control × 100)", "setting": "[2]; rats, listed as lumefantrine", "result": 64.41, "unit": "%"}, {"measurement": "decrease of AUC0-∞ of orally administered LUME in presence of 97-78", "setting": "[2]; LUME 10 mg/kg with 97-78 70 mg/kg oral vs LUME alone, rats, p <0.05", "result": 63.26, "unit": "%"}, {"measurement": "effect of 97-78 co-administration on Cmax of LUME", "setting": "[2]; [11]", "result": "not significantly altered"}, {"measurement": "effect of 97-78 co-administration on Tmax of LUME", "setting": "[2]; [11]", "result": "not significantly altered"}, {"measurement": "AUC(0-inf)", "setting": "[2]; [12]", "result": "11000 ± 660", "unit": "ng·h/mL"}, {"measurement": "AUC(0-t)", "setting": "[2]; [12]", "result": "10600 ± 710", "unit": "ng·h/mL"}, {"measurement": "CL/F", "setting": "[2]; [12]", "result": 15.2, "unit": "mL/min/kg"}, {"measurement": "Cmax", "setting": "[2]; [12]", "result": "1920 ± 620", "unit": "ng/mL"}, {"measurement": "Tmax", "setting": "[2]; [12]", "result": "4 ± 2.45", "unit": "h"}, {"measurement": "Vd/F", "setting": "[2]; [12]", "result": "62.7 ± 8.4", "unit": "L/kg"}, {"measurement": "half-life", "setting": "[2]; [12]", "result": "47.8 ± 6.48", "unit": "h"}, {"measurement": "AUC(0-inf)", "setting": "[2]; [13]", "result": "17400 ± 3290", "unit": "ng·h/mL"}, {"measurement": "AUC(0-t)", "setting": "[2]; [13]", "result": "16500 ± 2960", "unit": "ng·h/mL"}, {"measurement": "CL/F", "setting": "[2]; [13]", "result": 9.83, "unit": "mL/min/kg"}, {"measurement": "Cmax", "setting": "[2]; [13]", "result": "1810 ± 750", "unit": "ng/mL"}, {"measurement": "Tmax", "setting": "[2]; [13]", "result": "3.75 ± 1.5", "unit": "h"}, {"measurement": "Vd/F", "setting": "[2]; [13]", "result": "39.5 ± 6.26", "unit": "L/kg"}, {"measurement": "half-life", "setting": "[2]; [13]", "result": "46.9 ± 6.52", "unit": "h"}, {"measurement": "Stability in rat plasma: Accuracy (%)", "setting": "[1]; [5]", "result": 101.73, "unit": "%"}, {"measurement": "Stability in rat plasma: Accuracy (%)", "setting": "[1]; [6]", "result": 103.72, "unit": "%"}, {"measurement": "Stability in rat plasma: Accuracy (%)", "setting": "[1]; 10 ng/mL, 15 days at −70°C", "result": 105.73, "unit": "%"}, {"measurement": "Stability in rat plasma: Accuracy (%)", "setting": "[1]; [7]", "result": 99.48, "unit": "%"}, {"measurement": "Stability in rat plasma: Accuracy (%)", "setting": "[1]; [8]", "result": 101.03, "unit": "%"}, {"measurement": "Stability in rat plasma: Accuracy (%)", "setting": "[1]; [9]", "result": 101.51, "unit": "%"}, {"measurement": "Stability in rat plasma: Accuracy (%)", "setting": "[1]; 400 ng/mL, 15 days at −70°C", "result": 102.54, "unit": "%"}, {"measurement": "Stability in rat plasma: Accuracy (%)", "setting": "[1]; [10]", "result": 106.78, "unit": "%"}]}]}
